# Experimental data: patent EP4159213A1, “PHARMACEUTICAL COMPOSITIONS FOR USE IN PREVENTION AND/OR TREATMENT AND/OR CURE OF HEPATITIS B VIRUS” (Katholieke Universiteit Leuven, priority 2021, dated 2023)
# Like-named read-outs stand apart in the source and are kept apart here.
# Legend:
# Assay type in all cases: cell-based
# human NTCP [1] = molecular target: T1, human NTCP (Homo sapiens, UniProt Q14973); test: Uptake kinetics of tauro-nor-THCA-24-DBD in NTCP-transfected CHO cells; set-up: expressed in transfected cells; host or cells: CHO cells, geneticin selection, expression induced with sodium butyrate
# T1 sequence (Q14973 1-349): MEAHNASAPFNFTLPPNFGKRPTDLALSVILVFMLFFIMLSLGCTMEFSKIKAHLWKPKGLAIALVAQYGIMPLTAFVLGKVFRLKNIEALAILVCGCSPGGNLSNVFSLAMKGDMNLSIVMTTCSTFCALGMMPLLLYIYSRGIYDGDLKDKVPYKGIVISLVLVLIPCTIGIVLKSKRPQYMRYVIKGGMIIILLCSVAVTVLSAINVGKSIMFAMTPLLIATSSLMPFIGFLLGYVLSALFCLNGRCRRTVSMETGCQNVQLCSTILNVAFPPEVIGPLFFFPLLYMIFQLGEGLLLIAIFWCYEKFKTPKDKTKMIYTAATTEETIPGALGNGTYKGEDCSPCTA
# Procedure: (§1) To culture of NTCP-transfected CHO cells, wild-type and human NTCP-transfected CHO cells were cultured from passage 20 to 45 in T-75 flasks (Greiner-Bio-One, Wemmel, Belgium) as prescribed previously (Treiber et al., 2007). The cells were placed in an incubator at 37 °C and 5% CO2. The culture medium consisted of DMEM with 1 g·L^-1 glucose and 25 mM HEPES, supplemented with 10% FBS, 0.05 mg·mL^-1 L-proline, 100 IU·mL^-1 penicillin, 100 […], 2 mM glutamine, 0.11 mg·mL^-1 sodium pyruvate. To ensure selection of NTCP-transfected cells, 0.5 mg·mL^-1 geneticin was added to the medium of the transfected cells. Cells were seeded in black 96-well plates with transparent bottom at a density of 6000 cells·well^-1 and 4000 cells·well^-1 for wild-type and transfected cells, respectively. The medium was replaced every other day and 5 mM sodium butyrate was added to induce protein expression at least 36 h before the start of the experiments. Experiments were performed on day 4 or 5 after seeding when confluence was reached.
# (§2) Furthermore, to analyse the uptake experiments in NTCP-transfected CHO cells, cells were rinsed twice with 200 µL-well^-1 uptake buffer (HBSS containing 10 mM HEPES, pH 7.4) at 37 °C and subsequently preincubated with 100 µL uptake buffer for 15 minutes. For inhibition experiments, compounds were added at double concentration during preincubation. […] Uptake of tauro-nor-THCA-24-DBD was determined using fluorescence spectroscopy (excitation 440 nm, emission 580 nm) using a Tecan Infinite 200 plate reader (Tecan Benelux, Mechelen, Belgium). Protein content of each well was determined with the BCA Protein assay (Thermo Fisher Scientific, Waltham, MA) performed according to the manufacturer's protocol. Uptake kinetics of tauro-nor-THCA-24-DBD were determined by incubating eight different concentrations in the absence of any compound. The inhibitory potential of all compounds of the Spectrum Collection (n = 2000) and the ChemDiv library (n = 556) were determined at equimolar concentrations with 3 µM tauro-nor-THCA-24-DBD. […]
# human NTCP [2] = molecular target: T1, human NTCP; test: Inhibition of tauro-nor-THCA-24-DBD uptake in NTCP-transfected CHO cells; set-up: expressed in transfected cells; host or cells: CHO cells, geneticin-selected, expression induced with sodium butyrate
# Procedure: The cells were placed in an incubator at 37 °C and 5% CO2. The culture medium consisted of DMEM with 1 g·L^-1 glucose and 25 mM HEPES, supplemented with 10% FBS, 0.05 mg·mL^-1 L-proline, 100 IU·mL^-1 penicillin, 100 […], 2 mM glutamine, 0.11 mg·mL^-1 sodium pyruvate. To ensure selection of NTCP-transfected cells, 0.5 mg·mL^-1 geneticin was added to the medium of the transfected cells. Cells were seeded in black 96-well plates with transparent bottom at a density of 6000 cells·well^-1 and 4000 cells·well^-1 for wild-type and transfected cells, respectively. […]
# as §2, with “minutes.” for “minutes. For inhibition experiments, compounds were added at double concentration during preincubation.”, “compound.” for “compound. The inhibitory potential of all compounds of the Spectrum Collection (n = 2000) and the ChemDiv library (n = 556) were determined at equimolar concentrations with 3 µM tauro-nor-THCA-24-DBD.”
# human NTCP [3] = molecular target: T1, human NTCP; test: as above; set-up: expressed in transfected cells; host or cells: CHO cells, geneticin selection, expression induced with sodium butyrate; settings: for Ki / concentration-dependent inhibition of tauro-nor-THCA-24-DBD uptake: 3 µM tauro-nor-THCA-24-DBD; for Ki: read-out: Ki; for Uptake of tauro-nor-THCA-24-DBD (% of control): compound at equimolar concentration with 3 µM tauro-nor-THCA-24-DBD, triplicate; for concentration-dependent inhibition of tauro-nor-THCA-24-DBD uptake: multiple inhibitor concentrations
# Procedure: as §1, with “The” for “To culture of NTCP-transfected CHO cells, wild-type and human NTCP-transfected CHO cells were cultured from passage 20 to 45 in T-75 flasks (Greiner-Bio-One, Wemmel, Belgium) as prescribed previously (Treiber et al., 2007). The”
# Furthermore, to analyse the uptake experiments in NTCP-transfected CHO cells, cells were rinsed twice with 200 µL-well^-1 uptake buffer (HBSS containing 10 mM HEPES, pH 7.4) at 37 °C and subsequently preincubated with 100 µL uptake buffer for 15 minutes. For inhibition experiments, compounds were added at double concentration during preincubation. Uptake was initiated by adding 100 µL double-concentrated tauro-nor-THCA-24-DBD solution in uptake buffer. Cells were incubated for 15 minutes. The reaction was quenched by aspirating the incubation mixture and washing four times with ice cold uptake buffer. The cells were lysed with 100 µL 0.5% Triton X-100 in PBS and placed on a plate shaker (300 rpm) at room temperature for 30 minutes. Uptake of tauro-nor-THCA-24-DBD was determined using fluorescence spectroscopy (excitation 440 nm, emission 580 nm) using a Tecan Infinite 200 plate reader (Tecan Benelux, Mechelen, Belgium). Protein content of each well was determined with the BCA Protein assay (Thermo Fisher Scientific, Waltham, MA) performed according to the manufacturer's protocol. Uptake kinetics of tauro-nor-THCA-24-DBD were determined by incubating eight different concentrations in the absence of any compound. […] All conditions were tested in triplicate.
# Uptake of tauro-nor-THCA-24-DBD in presence of compounds was expressed to uptake of the control for each batch, i.e. when no compound was present.
# For determination of the IC50, the uptake in presence of various concentrations of inhibitor was fitted to the sigmoid Emax model: E = Emax −(Emax−E0) × (([I])^n)/(([I])^n + IC50^n) [formula] with E the uptake of tauro-nor-THCA-24-DBD, E0 the uptake at maximal inhibition by the compound, Emax the uptake at minimal inhibition, IC50 the concentration of the inhibitor at half maximal inhibition, n the Hill coefficient and [I] the concentration of the inhibitor. All curves were fitted with nonlinear least squares regression using R version 3.5.1.
# Assuming competitive inhibition, the Cheng-Prusoff equation was used to determine the Ki value: Ki = (IC50)/(1 + ([S])/(Km)) [formula] where Ki is the binding affinity of the inhibitor, IC50 the concentration of the inhibitor at half maximal inhibition, [S] the substrate concentration, and Km the Michaelis-Menten constant of the substrate.
# [4] = concentration dependent uptake, 15 minutes, NTCP-transfected CHO cells, Michaelis-Menten fit
# [5] = Cheng-Prusoff from IC50, screening hits
Compound,Ki (human NTCP [3]; [5]) [µM],Uptake of tauro-nor-THCA-24-DBD (% of control) (human NTCP [3]),other results
tauro-nor-THCA-24-DBD,,,Km (human NTCP [1]; [4]): 9.2 ± 1.8 µM; Vmax (human NTCP [1]; [4]): 322.1 ± 18.3 pmol·mg protein^-1·min^-1; uptake clearance (human NTCP [1]; corresponds to Vmax and Km): 35.0 µL·mg protein^-1· min^-1
Gramicidin,,,"Ki (human NTCP [2]; 3 µM tauro-nor-THCA-24-DBD, Cheng-Prusoff from IC50, screening hits): 7.59 µM; Uptake of tauro-nor-THCA-24-DBD (% of control) (human NTCP [2]; compound at equimolar concentration with 3 µM tauro-nor-THCA-24-DBD, triplicate): 37.54 % of control"
CC(=O)O.Cc1cc2c(C(C)C)c(O)c(O)c(C=O)c2c(O)c1-c1c(C)cc2c(C(C)C)c(O)c(O)c(C=O)c2c1O [Gossypol-acetic acid complex],3.1,36.14 % of control,
COc1ccc(-c2oc3c(CC=C(C)C)c(O)cc(O)c3c(=O)c2O[C@@H]2O[C@@H](C)[C@H](O)[C@@H](O)[C@H]2O)cc1 [Baohuoside I],,,concentration-dependent inhibition of tauro-nor-THCA-24-DBD uptake (human NTCP [3]): showed concentration-dependent inhibition; Ki (human NTCP [3]; values given with ± spread): 12.6 ± 4.1 µM
Dehydroavocatin-1 -acetate,118,44.14 % of control,
Cc1cc(O)c(C=O)c(O)c1C(=O)O [Haematommic acid],,49.33 % of control,
Nc1nc(=O)c2[nH]c(=O)cnc2[nH]1 [Xanthopterin],,49.67 % of control,
CC(C)(O)CC[C@@H](O)[C@](C)(O)[C@H]1CC[C@@]2(O)C3=CC(=O)[C@@H]4C[C@@H](O)[C@@H](O)C[C@]4(C)[C@H]3CC[C@]12C [Crustecdysone],,46.18 % of control,
Cc1cc2c(C(C)C)c(O)c(O)c(C=O)c2c(O)c1-c1c(C)cc2c(C(C)C)c(O)c(O)c(C=O)c2c1O [Gossypol],0.4,12.48 % of control,
Cc1cc2c(C(=O)NC[C@H](C)c3ccccc3)c(O)c(O)cc2c(O)c1-c1c(C)cc2c(C(=O)NC[C@H](C)c3ccccc3)c(O)c(O)cc2c1O [sabutoclax],,,concentration-dependent inhibition of tauro-nor-THCA-24-DBD uptake (human NTCP [3]): showed concentration-dependent inhibition; Ki (human NTCP [3]; values given with ± spread): 0.522 ± 0.077 µM
"COc1cc(-c2coc3cc(OCc4ccccc4)c(OC)c(O)c3c2=O)cc(O)c1OC [Irigenin, 7-benzyl ether]",13,46.71 % of control,
COc1cc2c3cc1Oc1cc(ccc1O)C[C@@H]1c4c(cc(OC)c(O)c4Oc4ccc(cc4)C[C@@H]3N(C)CC2)CC[N+]1(C)C.Cl.O.O.O.O.O.[Cl-] [Tubocurarine chloride],,49.76 % of control,
Cn1nnnc1SCC1=C(C(=O)O)N2C(=O)[C@@H](NC(=O)[C@H](O)c3ccccc3)[C@H]2SC1 [Cefamandole sodium],2.07,23.97 % of control,
CCCCCc1c2c(cc(O)c1C(=O)O)OC(=O)c1c(cc(OC)cc1C(=O)CCCC)O2 [Lobaric acid],0.36,9.70 % of control,
